In patent US20090035364A1, “PARA-SUBSTITUTED 2-ALKOXYPHENOL COMPOUNDS” (priority 2006, published 2009):

How the values were obtained:
[1] = Cooling intensity: panelists taste aqueous solutions, compared with menthol at 2 ppm; assay type: in vivo, human; conditions: tasted by a small group of panelists
[2] = Application in toothpaste: panelist's teeth brushed with toothgel containing the compound; assay type: in vivo, human; conditions: 0.10 g of 10% solution in ethanol in opaque toothgel with peppermint oil and saccharin; after brushing and rinsing
Protocol: The chemicals are mixed in the toothgel, a piece of toothgel is put on a toothbrush and a panelist's teeth are brushed. The mouth is rinsed with water and the water is spat out. […] The cooling perception lasts for 45 minutes.

Row | SMILES | Concentration having a cooling intensity similar to or slightly higher than that of a solution of menthol at 2 ppm [1] | melting point | further results
1 | COc1cc(CNC(c2ccccc2)c2ccccc2)ccc1O [Example 1, 4-((benzhydrylamino)methyl)-2-methoxyphenol] | 0.5 ppm | – | –
2 | COc1cc(COC(c2ccccc2)c2ccccc2)ccc1O [Example 4, 4-((benzhydryloxy)methyl)-2-methoxyphenol] | 1.0 ppm | – | Cooling sensation felt by the panelist [2]: intense cooling sensation; Duration of cooling perception [2]: 45 min
3 | COc1cc(CNC2c3ccccc3-c3ccccc32)ccc1O [Example 5, 4-((9H-fluoren-9-ylamino)methyl)-2-methoxyphenol] | – | 148 to 150 °C | –
4 | CCOc1cc(CNC(c2ccccc2)c2ccccc2)ccc1O [Example 6, 4-((benzhydrylamino)methyl)-2-ethoxyphenol] | – | 89 to 91 °C | –
5 | CC1CCC(C(C)C)C(O)C1 (centres unmarked) [I-Menthol, reference compound] | 2.0 ppm | – | –
6 | CCNC(=O)C1CC(C)CCC1C(C)C (centres unmarked) [N-ethyl p-menthanecarboxamide (WS-3), N-ethyl p-menthanecarboxamide, reference compound] | 1.5 ppm | – | –
